The source of these data is patent US11730716B2, “Compounds for treating ophthalmic diseases and disorders” (priority 2014, dated 2023).

As usually defined, the Cmax is the maximum level reached in the sampled fluid or tissue. Usually half-life stands for the time in which the quantity being followed falls by half.

One data set concerns intraocular tissues. In words: Local tolerability of intravitreal injections of PP-001 in rat eyes. The format is in vivo. Particulars: high dose PP-001 (150 μg/ml, 10 μl intravitreal); 8 days. The protocol: For this purpose, three different doses of PP-001, dissolved in phosphate-buffered saline (PBS) and a vehicle control with PBS only were injected into the posterior chamber (=vitreous) of rat eyes. The eyes (anterior chamber) were examined daily with an ophthalmoscope and after 8 days the experiment was terminated, and the eyes processed for histology (cryosections).
8 Lewis rats (age 7-8 weeks) were anesthetized using 0.5 mg/kg medetomidine s.c. Additional topical anesthesia with 0.4% oxybuprocaine eye drops was applied. After intraocular injection sedation was antagonized with an s.c. injection of 2.5 mg/kg atipamezol.
10 μl of solution were injected into the vitreous of both eyes with a 30 G needle, controlled under an operation microscope. The perpendicular injection is penetrating the […] and should neither touch the lens or the retina. After injection an antibiotic ointment was applied to the eyes to avoid infections.
PP-001 was dissolved in PBS and applied intravitreally in 3 different concentrations.
Group 1, Rat 1-1 and 1-2: 10 μl PBS (vehicle control)

A short description of the next data set: in vivo. On the set-up: species or system Dutch Belted rabbits. The note with it: male, Dutch Belted, rabbit, topical or ocular; for half-life: t1/2. The procedure: 36 male Dutch Belted rabbits were divided in […]: 16 animals each in group 1 and 2 received 0.0625 mg and 0.125 mg PP-001 per eye, 4 animals were administered with dose vehicle (sucrose solution) only. At designated time points animals were sacrificed and vitreous humor, retina, and choroid were collected from both eyes of each animal and weighed. Samples were analysed for PP-001 concentration using a specific HPLC/MS/MS analytical method and PK parameters were calculated with Phoenix WinNonlin software (v6.3) using a non-compartmental model with sparse sampling.
Animals were anesthetized with an intramuscular injection of ketamine hydrochloride (30 mg/kg) and xylazine (5 mg/kg) for the injection procedure.
The study director performed the IVT injection in both eyes (OU). Topical ocular anesthetics were used per ASI SOPs.
The eyes and surrounding tissues were cleaned and disinfected with 2% betadine ophthalmic solution and then rinsed with basic salt solution (BSS). Using a 30 gauge needle with length no greater than ⅝ inch, injections were made 5 to 7 mm from the limbus (where the cornea meets the sclera). Once inserted, the PP-001 or vehicle control was injected at a volume of 25 μL per eye. The needle was then removed and the eye rinsed with BSS.
Vitreous humor and choroid/sclera/retina were collected from both eyes of each animal at the designated time point and analyzed for PP-001 concentration using a specific HPLC/MS/MS analytical method.

The next data set has as its system Ad5 McEwen. In words: Experimental adenoviral ocular infection (Ad5/NZW rabbit ocular model), eye drops, plaque assay on A549 monolayers. The format is in vivo. The procedure: 25 New Zealand White rabbits were inoculated in both eyes following general anesthesia with ketamine and xylazine, topical anesthesia with proparacaine, and corneal scarification (12 cross-hatched strokes of a #25 needle) with 50 μl of 3.0×10^7 PFU/ml (1.5×10^6 PFU/eye) of Ad5 McEwen (Stock 1/17/08, 4.08×10^8 PFU/ml). Eyes were closed and gently rubbed for 5 seconds to ensure contact of the virus on all ocular surfaces.
At least 3 h after inoculation, all eyes were cultured for virus. Following topical anesthesia with proparacaine, a single cotton-tipped swab was placed into the lower fornix of each eye, rolled over the cornea into the upper fornix to recover adenovirus from the tear film and corneal and conjunctival surfaces. The swabs from each eye were placed individually into tubes containing 1 ml of outgrowth media and were frozen at −70° C. pending plaque assay.
On day 1, the rabbits were divided into 5 treatment groups outlined in the chart below. The five treatment groups consisted of a vehicle control, 0.16% PP-001 8 times, 6 times, and 4 times daily for 10 days, and the positive antiviral control 0.5% cidofovir (CDV).
Begin of treatment on day 1. Drops were administered with at least a 45 min interval between drops. All eyes from all groups were cultured for virus on days 1, 3, 4, 5, 7, 9, 11, and 14 PI at least 1 h after the final doses of the treatments described above. At various times during the course of the experiment, Ad5 titers were determined on A549 cell monolayers using standard plaque assays. The ocular cultures to be titered were thawed, diluted (1:10) and inoculated onto A549 monolayers. The virus was adsorbed for 3 h. Following adsorption, 1 ml of media plus 0.5% methylcellulose was added to each well, and the plates were incubated at 37° C. in a 5% […] atmosphere. After 7 days incubation, the cells were stained with 0.5% gentian violet, and the number of plaques were counted under a dissecting microscope (25×). The viral titers were then calculated, and expressed as plaque-forming units per milliliter (PFU/ml). […]

In data set [1] the test system is choroidal neovascularization. In words: Inhibition of choroidal neovascularization in PDSAg-induced EAU rat model. The class given is in vivo, Lewis rats. The source says:
Choroidal neovascularization is a known feature of posterior uveitis and a major cause of retinal destruction and loss of vision. To monitor the effect of PP-001 on neovascularization, the EAU model in Lewis rats was used. In Lewis rats the disease was induced by immunizing animals with retinal antigen PDSAg, a 14mer derived from S—Ag. Immunization with that peptide emulsified in Complete Freund's Adjuvant (CFA) leads to severe inflammation of the anterior chamber of the eyes and destruction of the retinal architecture and choroidal neovascularization Induction with PDSAg causes a monophasic disease with first clinical signs of inflammation observed between day 8 and 12 after immunization and reaching the peak of disease between day 14 and 18. Inflammation in the anterior chamber subsides until day 21 to 22 post immunization. Long term effects such as choroidal neovascularization are seen at the later stages of the disease after the inflammation of the anterior chamber has subsided. 18 Lewis rats were immunized with PDSAg. Starting at the beginning of the disease (day 9 post immunization) 6 animals were treated with PP-001 and 6 animals were treated with vehicle control. […] Post day 25 experiment was stopped and 12 eyes for each treatment group were histological analyzed for the presence of choroidal neovascularizations.

Data set [2] has as its system vascular endothelial growth factor (VEGF). In words: Cellular protein expression of VEGF in antigen-stimulated rat lymph node/T cell cultures (Luminex multiplex cytokine assay). The class given is cell-based. The note with it: 3 μM, 10 μM and 30 μM; supernatants after 24 h. The procedure:
Rats were immunized with 25 μg of the respective peptide as previously described.
After 10 to 12 days popliteal, inguinal and para-aortal lymph nodes (LN) were collected, single cell suspensions were stimulated with the respective antigen peptides at a final concentration of 10 μg/ml RPMI1640, supplemented with Penicillin/Streptomycin, L-Glutamine, essential and non-essential amino acids (all 4 from PAA, Colebee, Germany), 12.5 μM […] and 1% normal rat serum. After 3 days the cells were expanded in culture medium supplemented with 10% spleen conditioned medium (from Concanavalin A-stimulated rat spleen cells) and 5% fetal calf serum (FCS) for 4 days.
For restimulation 0.5-2×10^6 T cells/ml were incubated with irradiated (8 Gy) rat thymocytes (3-10 fold more than T cells) as antigen-presenting cells (APC) and 10 μg/ml of the specific antigen peptide in culture medium as described for the first stimulation. After two days of culturing cells were expanded with conditioned medium for 5 days as described above, followed by another cycle of restimulation and expansion. […]

The test system of data set [3] is experimental autoimmune uveitis (EAU). In words: Prevention of relapses in the experimental autoimmune uveitis (EAU) rat model, R14-induced, intravitreal injection. The class given is in vivo, Lewis rats. The source says: Experimental autoimmune uveitis (EAU) in Lewis rats is a model for human endogenous uveitis. The disease is mediated by CD4+ T lymphocytes of the T helper 1 (Th1) and Th17 subtypes. In Lewis rats the disease was induced by immunizing animals with retinal antigens such as interphotoreceptor retiniod-binding protein (IRBP) and adjuvant. IRBP is also considered to be an autoantigen in humans. Peptide R14, a 23mer from IRBP, is the most pathogenic epitope for Lewis rats. Immunization with these peptides emulsified in Complete Freund's Adjuvant (CFA) leads to severe inflammation of the anterior chamber of the eyes and destruction of the retinal architecture. R14 causes a relapsing-remitting disease with an early onset (about day 7), the peak of EAU between day 10 to 14 and the remission around day 17/18. 20 rats were immunized with 15 μg IRBP-peptide R14 emulsified in complete Freund's adjuvant. After primary disease, PP-001 was injected intravitreally at day 18 (6 μl=3 μg PP-001) in both eyes of 10 animals. One eye in this group dropped out because of penetrating the eye during injection. 10 animals received 6 μl PBS intravitreally in both eyes as control group. Clinical grade of inflammation in the anterior chamber was determined daily.

In another data set the test system is dry eye syndrome. The format is in vivo. The procedure:
The aim of the study was to evaluate the tolerability and therapeutic potential of PP-001 in a murine model of dry eye syndrome.
Dry eye symptoms were induced in forty (40) pigmented C57BL/6N mice by exposing them to a controlled environment (relative humidity<25%, air-flow 15 L/min, temperature 20-22° C.) and systemic scopolamine administration (0.5 mg/72 h) for 10 days.
Mice were randomized into 4 groups of 10 animals and treated with PP-001, Restasis®, placebo and the forth group remained untreated.
Tear production and corneal defects were evaluated on days 3, 7 and 10 using phenol red thread and fluorescence staining in each of the four groups.
Preparation of Eye Drop Solutions:
Placebo eye drops: A solution containing 20 mg/ml polyvinylpyrrolidone, 10 mg/ml glycerol 85%, 2 mg/ml hydroxypropyl methylcellulose in sodium phosphate buffer adjusted to pH 7.
PP-001 eye drops: A solution containing 1.6 mg/ml PP-001, 20 mg/ml polyvinylpyrrolidone, 10 mg/ml glycerol 85%, 2 mg/ml hydroxypropyl methylcellulose in sodium phosphate buffer adjusted to pH 7.
Positive control: Restasis® (cyclosporine ophthalmic emulsion from Allergan)

Data set [4] concerns retinal and choroidal tissue. In words: Tolerability of intravitreal injections of PP-001 solutions in Dutch Belted rabbits. The format is in vivo. The note with it: intravitreal 0.0625 or 0.125 mg/eye.

The structures appear in SMILES notation.

For `O=C(Nc1c(F)c(F)c(-c2cccc(OC(F)(F)F)c2)c(F)c1F)c1ccsc1C(=O)O` [PP-001, 3-(2,3,5,6-tetrafluoro-3′-trifluoromethoxy-biphenyl-4-ylcarbamoyl)-thiophene-2-carboxylic acid], the eyes completely normal in the data set on intraocular tissues is on record as 2 of 4. The Cmax is 33.2 µg/g in the data set “in vivo” (0.0625 mg); 25.7 µg/g in the data set “in vivo” (0.0625 mg, Cmax); 56.9 µg/g in the data set “in vivo” (0.125 mg); 61.5 µg/g in the data set “in vivo” (0.125 mg, Cmax). The t1/2 in the data set “in vivo” (0.0625 mg) is given as 14.5 h; in “in vivo” (0.125 mg) it was 13.1 h. The half-life in the data set “in vivo” (0.0625 mg) was 14.3 h; in “in vivo” (0.125 mg), 21.4 h. For the same compound, the “dose response of antiviral efficacy” value in the data set on Ad5 McEwen (0.16% PP-001 8 times and 6 times per day vs 4 times per day, 10 days) is “more efficacious than 0.16% PP-001 instilled 4 times per day for 10 days”. In the data set with Ad5 McEwen (0.16% PP-001 eye drops, 4-8 times daily for 10 days), the “safety as topical antiviral agent” value is given as “safe”. Moreover, in the data set with Ad5 McEwen (0.16% PP-001 eye drops, Ad5 titers PFU/ml), the “antiviral efficacy (topical)” value was “efficacious”. Besides, the “reduction of number of choroidal neovascularizations (factor)” value in data set [1] (treatment started at beginning of uveitis (day 9 post immunization), vs vehicle, p<0.005) worked out at 3. The “mean number of choroidal neovascularizations” value in data set [1] (treatment started at day 15 (peak of disease), vehicle mean 6, p<0.05) was found to be 3. Further, the “protein expression of VEGF” value in data set [2] was “reduced”. In addition, in data set [3] (single intravitreal injection at day 18, 3 μg per eye, compared to placebo group), the “time to the appearance of the first relapse” value is on record as “delayed”. In addition, the “reduction of the number of relapses” value in data set [3] (single intravitreal injection at day 18, 6 μl = 3 μg per eye, vs PBS control) is over 50%. Further, in the data set with dry eye syndrome (Day 10), the “corneal staining compared to placebo treatment” value is given as “reduced”. Besides, the “corneal staining in comparison to the induced untreated group” value in the data set on dry eye syndrome (Day 10, multiple instillations) is reported as “reduced significantly”. The corneal surface damage entry with dry eye syndrome (multiple topical administrations of PP-001 1.6 mg/mL) is given as “reduced corneal surface damage comparable to Restasis®”. The “effect on the retinal and choroidal tissue” value in data set [4] is given as “did not have any significant effect”.
